Measurements taken from ChEMBL document CHEMBL4813921, “Optimization of WZ4003 as NUAK inhibitors against human colorectal cancer” (Eur J Med Chem, 2021).

System: HCT-116
Assay: Induction of apoptosis in human HCT-116 cells assessed as viable cells at 10 uM measured after 48 hrs by Annexin V-FITC/PI staining based flow cytometry method (reference value: 95.4%)
Assay type: functional
Settings: read-out: Activity

Work on CCC(=O)Nc1cccc(Oc2nc(Nc3ccc(N4CCN(C)CC4)cc3)ncc2Cl)c1 yielded a viability at 10 µM of 46%.
